Measurements taken from patent US20040137574A1, “Novel polypeptide” (Pfizer Inc, priority 2000, published 2004).

Legend:
PFI-019 = target: T1, PFI-019 (Homo sapiens, UniProt Q96P68); assay: FLIPR cell-based assay for agonist activation of PFI-019 (calcium fluorescence, Fluo3); conditions: PFI-019-transfected HEK 293 cells expressing mouse Gα15, fluorescence intensity versus time
T1 construct: amplify the PFI-019 coding region from human genomic DNA; N-terminal polyhistidine/Xpress leader of vector pcDNA4/HisMax-TOPO (inferred from the vector name); expressed in transfected cells; host or cells: HEK293 cells expressing the mouse Galpha15 gene, transiently transfected
Description: Fluorescence Imaging Plate Reader (FLIPR®) technology was employed as a means to detect activation of PFI-019 by agonists in a cell-based assay.
(§1) 5×10^6 Human Embryonic Kidney (HEK) 293 cells expressing the mouse Gα15 gene (from here on called '293 cells'), were transiently transfected with 7.5 μg of PFI-019 (contained within the pcDNA4HIS-max-TOPO (Invitrogen) plasmid) vector, or vector alone, using Lipofectamine Plus® reagent (Gibco BRL) as per the manufacturer's protocol. The plasmid pcDNA4HIS-max-TOPO was used as it contains elements that up-regulate the level of gene transcription over standard pcDNA3.1 vectors. 24 hrs post-transfection, the cells were detached from the flask using Trypsin/EDTA solution (LTI) and seeded into a black sided, Poly-D-lysine-treated, 96-well plate (Becton Dickinson) at 5×10^4 cells/well density. The plates were left overnight to allow the cells to adhere to the bottom of the wells. […] The FLIPR® processing involved reading the fluorescence for all samples for 2 minutes; during this time the fluorescence baseline was determined for the first 10 seconds. The desired amount of compound was then automatically transferred to the wells, and the fluorescence was continuously monitored for the remainder of the time. […]

[1] = system: Vector-only transfected 293 cells; assay: FLIPR cell-based assay, vector-only (mock) transfected control cells; parameters: species or system human; conditions: vector-only transfected HEK 293 cells expressing mouse Gα15
Description: as §1

Structure (SMILES) | stimulation of PFI-019 (fluorescence response) (PFI-019) | response of vector-only transfected 293 cells (fluorescence) [1]
Nc1nc(Cl)nc2c1ncn2[C@@H]1O[C@H](COP(=O)([O-])OP(=O)([O-])OP(=O)([O-])[O-])[C@@H](O)[C@H]1O.[Na+].[Na+].[Na+].[Na+] [2-chloro-ATP, 2-chloroadenosine triphosphate tetrasodium] | stimulation of PFI-019 | no measurable response
O=c1ccn([C@@H]2O[C@H](COP(=O)(O)OP(=O)(O)OP(=O)(O)O)[C@@H](O)[C@H]2O)c(=O)[nH]1 [UTP, Uridine triphosphate] | stimulation of PFI-019 | no measurable response
